Laboratory results taken from patent US20190091189A1, “ADMINISTRATION OF EXOGENOUS KETONE TO LOWER BLOOD GLUCOSE” (priority 2016, published 2019).

Key:
[1] = Multiple treatment (7 days) and rotarod exercise, blood βHB and glucose; assay type: in vivo, Sprague-Dawley rats; details: exercised SPD rats
Text: Four month old Sprague-Dawley rats were first acclimated to oral gavage with administration of tap water once daily for a period of 5 days. The rats were then divided into 5 groups, and fed either a standard diet (SD), a ketogenic diet (KD), or a standard diet supplemented with a once daily oral gavage of a ketogenic compound as outlined in Table 1. The ketogenic compound was selected from 1,3-butanediol-acetoacetate diester (SD+KE), β-hydroxybutyrate mineral salt (SD+KS), or β-hydroxybutyrate mineral salt and a medium chain triglyceride (SD+KSMCT). The above ketogenic compounds were provided at a dose of 5 g/kg of body weight.
Each group of animals was maintained on the respective dietary conditions for 7 days. Whole blood samples (10 μL) were collected from the saphenous vein of rats. The levels of blood glucose (mg/dL) and β-hydroxybutyrate (mmol/L) were measured with the commercially available glucose monitoring system PRECISION XTRA® (Abbott Laboratories, Abbott Park, Ill., USA). It is noted that the PRECISION XTRA® only measures β-hydroxybutyrate levels, therefore total blood ketone levels may be higher than measured.
Rats were exercised on a Rota Rod Rotamex 5 (Columbus Instruments). Animals were exercised on the rotarod for 5 consecutive days before treatment began in order to acclimate to the equipment and the task. The rats were placed on rods of the accelerating rotarod and the time the animals remained on the rotarod was measured. The rotarod was set to accelerate to 40 rpm in 180 seconds. Each training and testing consisted of 3 trials, with a 2 minute rest period between each trial. Animals were placed on the rotarod and timed until they fell from the rotating rod. The animals were evaluated on the rotarod exercise test after the 5 days training period but prior to the beginning of dietary treatment (baseline), 24 hours after treatment, and after 7 days of dietary treatment.
The animals were evaluated for blood levels of glucose and ketone bodies β-hydroxybutyrate), prior to the beginning of dietary treatment, 24 hours after treatment, and after 7 days of dietary treatment.

[2] = Sub-chronic oral gavage (7 days), blood βHB and glucose, without exercise; assay type: in vivo; details: WAG/Rij rats; for blood βHB: about 2.5 g/kg b.w./day, after 7 days of gavage, compared to baseline, 24 h and control
Text: (§1) In order to familiarize the animals to the intragastric gavage method, water was gavaged for 5 days before ketone supplementation. Following the adaptation period to the intragastric gavage method, 39 male SPD rats were fed with standard diet, and gavaged daily with 5 g/kg b.w./day water (SD/control; n=11) or ketone supplements KE (n=9), KS (n=9), KSMCT (n=10) sub-chronically for 7 days. In addition, following the adaptation period to the intragastric gavage method, WAG/Rij male rats (n=32) were fed with SD and gavaged sub-chronically with about 2.5 g/kg b.w./day water (SD/control; n=8), KE (n=8), KS (n=8) or KSMCT (n=8) for 7 days.
(§2) In the chronic feeding study, blood βHB and glucose levels were measured 24 h before the 1st day of ketone treatments (baseline levels) and at 13th week. In the 7 day oral gavage studies, blood βHB and glucose levels were measured 24 h before the 1st day of ketone treatments (baseline levels; SPD and WAG/Rij rats), 24 h after the first gavage and 60 min after gavage on the 7th day (SPD and WAG/Rij rats). Whole blood samples (10 μL) were taken from the saphenous vein for analysis of blood glucose (mg/dl) and βHB (mmol/1) levels with the commercially available glucose and ketone (βHB) monitoring system Precision Xtra™ (Abbott Laboratories, Abbott Park, Ill., USA).

[3] = 10-week feeding of G1D mice, blood ketone and glucose; assay type: in vivo; details: fed for 10 weeks, 10% KE or 20% KS in standard diet, or ketogenic diet
Method: GLUT1 deficiency syndrome (G1D) is characterized by impaired glucose transport in the brain and diagnosed with CSF glucose value of <2.2 mmol/L. There is no cure for G1D, but the ketogenic diet (KD) is often effective for the drug-resistant seizures and impairment of motor function associated with the disease. The effect of ketogenic compounds on blood glucose levels was assessed in glucose transporter type 1 (G1D)-deficient mice. A group of 48 G1D mice, aged 2-5 months old, were fed for 10 weeks with either a standard rodent diet (SD), a ketogenic diet (KD), a standard diet supplemented with 10% ketone ester (SD+KE) or a standard diet supplemented with 20% ketone mineral salt (SD+KS).

[4] = Sub-chronic oral gavage (7 days), blood βHB and glucose, without exercise; assay type: in vivo, Sprague-Dawley rats; details: SPD rats, 5 g/kg b.w./day gavage
Text: as §1, §2

[5] = Chronic feeding (83 days) of ketone supplements, blood βHB and glucose; assay type: in vivo, Sprague-Dawley rats; details: SPD rats, after 83 days of chronic feeding (~25 g/kg b.w./day), compared to control
Text: A total of 48 male SPD rats were fed for 83 days with either standard rodent chow (2018 Teklad Global 18% Protein Rodent Diet (#2018), Harlan) standard diet (SD)/control; n=9) or SD+ketone supplementation. Four treatment animal groups included low-dose KE (˜10 g/kg b.w./day, Low-dose ketone ester (LKE); n=10), high-dose KE (˜25 g/kg b.w./day, high dose ketone ester (HKE); n=10), KS (˜25 g/kg b.w./day, KS; n=9) and KSMCT (˜25 g/kg b.w./day, KSMCT; n=10).
as §2

[6] = 5 g/kg once daily gavage (or ketogenic diet), 24 hours after treatment
[7] = 5 g/kg once daily gavage (or ketogenic diet), after 24 hours, compared to baseline
[8] = 5 g/kg once daily gavage (or ketogenic diet), after 7 days
[9] = 5 g/kg once daily gavage, after 7 days

| Compound | blood βHB after exercise [1, 6] | blood glucose levels after exercise [1, 7] | blood βHB after exercise [1, 8] | blood glucose levels after exercise [1, 9] | glucose levels ([2]; about 2.5 g/kg b.w./day gavage, after 24 h, compared to baseline and control group) | blood βHB [2] | blood glucose level [3] | blood ketone level [3] | blood βHB levels ([4]; 24 h after a single gavage, compared to control) | blood glucose levels ([4]; at 24 h, compared to control) | blood βHB levels [5] | blood βHB ([4]; 7 days, compared to control group) |
| --- | --- | --- | --- | --- | --- | --- | --- | --- | --- | --- | --- | --- |
| CC(=O)CC(=O)OCCC(C)OC(=O)CC(C)=O (centres unmarked) [KE, 1,3-butanediol-acetoacetate diester] | elevated levels | reduce blood glucose levels | trend towards baseline levels | trended towards baseline | lower | elevated | quickly dropped and remained the lowest | slow and slight elevation | elevated | lower | significantly elevated | – |
| Na^+/K^+-β-hydroxybutyrate mineral salt [KS] | no change | increase | significant increase | decline towards baseline | – | elevated | early decrease | significant and rapid elevation | – | – | significantly elevated | elevated |
